The values below are quoted from earlier work in patent US20050004194A1, “Use of organic compounds” (priority 2003, published 2005).

For series [1] the following is noted: elderly heart failure patients, losartan versus captopril 50 mg t.i.d.
The conditions of series [2]: SAVE trial, patients after MI, captopril versus placebo.

Take `CCCCc1nc(Cl)c(CO)n1Cc1ccc(-c2ccccc2-c2nn[nH]n2)cc1` [losartan]: in series [1], the “primary objective: tolerability and increase in serum creatinine” value was “no significant differences”. For the same compound, the all-cause mortality entry in series [1] (722 patients, based on only 49 deaths) is listed as “statistically significant reduction”.

As to `C[C@H](CS)C(=O)N1CCC[C@H]1C(=O)O` [captopril], the left ventricular remodeling result in series [2] is recorded as “improvement”.
